In US7816350B2, “Substituted [1,2,3] triazolo[4,5-D]pyrimidines as cdk inhibitors” (Institute of Experimental Botany ASCR, priority 2002, dated 2010):

Legend:
β-adrenergic receptors = experiment: Modulation of the activity of β-adrenergic receptors, isoproterenol-induced cAMP synthesis in C6 glioma; type: cell-based; details: cAMP synthesis induced by 5 μM (−) isoproterenol, rat C6 glioma; for Effect: result in words; for IC50: read-out: I50
Protocol: Rat C6 glioma (ATCC N^o CCL107) was cultivated in monolayer in serum-free chemically defined medium containing Ham's F10/minimal essential medium (1:1 vol/vol), 2 mM L-glutamine, 1% (vol/vol) minimal essential medium vitamins (100×), 1% (vol/vol) minimal essential medium nonessential amino acids (100×), 100 U/ml penicillin, 100 μg/ml streptomycin and 30 nM sodium selenite. Incubation was at 37° C. in a humidified atmosphere. Assays were performed in the logarithmic growth phase at a density of 2.5×10^5 cells/cm^2. Intracellular cAMP synthesis was induced by addition of 5 μM (−) isoproterenol. After 30 min incubation at 37° C. the medium was removed and the cellular amount of cAMP determined using the cAMP-enzyme immunoassay kit of Amersham. The I50 is determined from a dose-response curve in duplicate (Table 7). The effect of seven 8-azapurine-analogs was measured after simultaneous addition with isoproterenol.
As P2Y1-like and A2 purinergic receptors, negatively and positively coupled to adenylate cyclase respectively, are present on rat C6 glioma it has to be determined if the modulation of the synthesis of cAMP is due to inhibition of the activation of β-adrenergic receptors by isoproterenol are due to activation of purinergic receptors.

p34^cdc2/cyclin B (CDC2) = biological target: T1, p34^cdc2/cyclin B (CDC2) (Homo sapiens, UniProt P06493); experiment: CDK inhibition assay, p34cdc2/cyclin B kinase, histone H1 phosphorylation; type: biochemical
T1 construct: made in house; host or cells: Sf9 insect cells (baculovirus co-infection)
Protocol: (§1) Cyclin-dependent kinases (p34^cdc2, p33^cdk2) and cyclins (cyclin B, E) are produced in Sf9 insect cells coinfected with appropriate baculoviral constructs. The cells are harvested 68-72 hrs post infection in lysis buffer for 30 min on ice and the soluble fraction is recovered by centrifugation at 14.000 g for 10 min. The protein extract is stored at −80° C.
(§2) Lysis buffer: 50 mM Tris pH 7.4, 150 mM NaCl, 5 mM EDTA, 20 mM NaF, 1% Tween, 1 mM DTT, 0.1 mM PMSF, leupeptine, aprotonine.
(§3) To carry out experiments on kinetics under linear conditions, the final point test system for kinase activity measurement is used. The kinase is added to reaction mixture in such a way as to obtain linear activity with respect to the concentration of enzyme and with respect to time.
(§4) The p34^cdc2 and p33^cdk2 kinase inhibition determination involves the use of 1 mg/ml histone H1 (Sigma, type III-S) in the presence of 15 μM [γ-^32P]ATP ([…]) (Amersham) in a final volume of 20 μl. Kinase activity is determined at 30° C. in the kinase buffer.
(§5) Tested compounds are usually dissolved to 100 mM solutions in DMSO, final concentration of DMSO in reaction mixture never exceeds 1%. The controls contain suitable dilutions of DMSO.
(§6) After 10 min, addition 3×SDS sample buffer stops the incubations. Phosphorylated proteins are separated electrophoretically using 12.5% SDS polyacrylamide gel. The measurement of kinase activity is done using digital image analysis.
(§7) The kinase activity is expressed as a percentage of maximum activity, the apparent inhibition constants are determined by graphic analysis (FIG. 1).
(§8) Kinase buffer: 50 mM Hepes pH 7.4, 10 mM MgCl2, 5 mM EGTA, 10 mM 2-glycerolphosphate, 1 mM NaF, 1 mM DTT

IκB-α kinase = IκB-α kinase inhibitory activity, in vitro kinase assay; type: biochemical
MCF7 = experiment: In vitro cytotoxic activity, MTT assay, MCF7; type: cell-based; details: Homo sapiens, 72 hours
Excerpt: One of the parameters used, as the basis for colorimetric assays is the metabolic activity of viable cells. For example, a microtiter assay, which uses the tetrazolium salt MTT, is now widely used to quantitate cell proliferation and cytotoxicity. For instance, this assay is used in drug screening programs and in chemosensitivity testing. Because only metabolically active cells cleave tetrazolium salts, these assays detect viable cells exclusively. In the case of MTT assay, yellow soluble tetrazolium salt is reduced to coloured water-insoluble formazan salt. After it is solubilized, the formazan formed can easily and rapidly be quantified in a conventional ELISA plate reader at 570 nm (maximum absorbance). The quantity of reduced formazan corresponds to number of vital cells in the culture.
Human T-lymphoblastic leukemia cell line CEM; promyelocytic HL-60 and monocytic U937 leukemias; breast carcinoma cell lines MCF-7, BT549, MDA-MB-231; glioblastoma U87MG cells; cervical carcinoma cells HELA; sarcoma cells U2OS and Saos2; hepatocellular carcinoma HepG2; mouse immortalized bone marrow macrophages B2.4 and B10A.4; P388D1 and L1210 leukemia; B16 and B16F10 melanomas were used for routine screening of compounds. The cells were maintained in Nunc/Corning 80 cm^2 plastic tissue culture flasks and cultured in cell culture medium (DMEM with 5 g/l glucose, 2 mM glutamine, 100 U/ml penicillin, 100 μg/ml streptomycin, 10% fetal calf serum and sodium bicarbonate).
The cell suspensions that were prepared and diluted according to the particular cell type and the expected target cell density (2.500-30.000 cells per well based on cell growth characteristics) were added by pipette (80 μl) into 96/well microtiter plates. Inoculates were allowed a pre-incubation period of 24 hours at 37° C. and 5% CO2 for stabilisation. Four-fold dilutions of the intended test concentration were added at time zero in 20 μl aliquots to the microtiter plate wells. Usually, test compound was evaluated at six 4-fold dilutions. In routine testing, the highest well concentration was 266.7 μM, but it can be the matter of change dependent on the agent. All drug concentrations were examined in duplicates. Incubations of cells with the test compounds lasted for 72 hours at 37° C., in 5% CO2 atmosphere and 100% humidity. At the end of incubation period, the cells were assayed by using the MTT. Ten microliters of the MTT stock solution were pipetted into each well and incubated further for 1-4 hours. After this incubation period, formazan was solubilized by addition of 100 μl/well of 10% SDS in water (pH=5.5) followed by further incubation at 37° C. overnight. The optical density (OD) was measured at 540 nm with the Labsystem iEMS Reader MF (UK). The tumour cell survival (TCS) was calculated using the following equation: TCS=(ODdrug exposed well/mean ODcontrol wells)×100%. The IC50 value, the drug concentration lethal to 50% of the tumour cells, was calculated from the obtained dose response curves (FIG. 2).

K-562 = experiment: In vitro cytotoxic activity, MTT assay, K-562; type: cell-based; details: Homo sapiens, K562, 72 hours
p33^cdk2 (cyclin E) = biological target: T2, p33^cdk2 (cyclin E) (Homo sapiens, UniProt P24941); experiment: CDK inhibition assay, p33cdk2 kinase, histone H1 phosphorylation; type: biochemical
T2 construct: made in house; host or cells: Sf9 insect cells (baculovirus co-infection)
Protocol: as §1, §2, §3, §4, §5, §6, §7, §8

CDK9 - cyclin T1 = CDK9 - cyclin T1 (Homo sapiens, UniProt P50750); experiment: CDK inhibitory activity, CDK9 - cyclin T1; type: biochemical
Sequence of CDK9 - cyclin T1 (P50750 whole entry): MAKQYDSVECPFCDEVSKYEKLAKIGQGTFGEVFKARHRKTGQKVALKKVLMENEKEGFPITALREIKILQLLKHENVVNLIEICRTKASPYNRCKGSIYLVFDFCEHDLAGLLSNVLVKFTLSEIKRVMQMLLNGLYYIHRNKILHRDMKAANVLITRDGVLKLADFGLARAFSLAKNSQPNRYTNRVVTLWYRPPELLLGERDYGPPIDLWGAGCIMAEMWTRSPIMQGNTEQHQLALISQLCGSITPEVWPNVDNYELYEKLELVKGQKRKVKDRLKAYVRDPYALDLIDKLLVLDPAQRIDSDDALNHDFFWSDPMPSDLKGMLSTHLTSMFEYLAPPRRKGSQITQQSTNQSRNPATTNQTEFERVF
Sequence of CDK9 - cyclin T1 (O60563 whole entry partner): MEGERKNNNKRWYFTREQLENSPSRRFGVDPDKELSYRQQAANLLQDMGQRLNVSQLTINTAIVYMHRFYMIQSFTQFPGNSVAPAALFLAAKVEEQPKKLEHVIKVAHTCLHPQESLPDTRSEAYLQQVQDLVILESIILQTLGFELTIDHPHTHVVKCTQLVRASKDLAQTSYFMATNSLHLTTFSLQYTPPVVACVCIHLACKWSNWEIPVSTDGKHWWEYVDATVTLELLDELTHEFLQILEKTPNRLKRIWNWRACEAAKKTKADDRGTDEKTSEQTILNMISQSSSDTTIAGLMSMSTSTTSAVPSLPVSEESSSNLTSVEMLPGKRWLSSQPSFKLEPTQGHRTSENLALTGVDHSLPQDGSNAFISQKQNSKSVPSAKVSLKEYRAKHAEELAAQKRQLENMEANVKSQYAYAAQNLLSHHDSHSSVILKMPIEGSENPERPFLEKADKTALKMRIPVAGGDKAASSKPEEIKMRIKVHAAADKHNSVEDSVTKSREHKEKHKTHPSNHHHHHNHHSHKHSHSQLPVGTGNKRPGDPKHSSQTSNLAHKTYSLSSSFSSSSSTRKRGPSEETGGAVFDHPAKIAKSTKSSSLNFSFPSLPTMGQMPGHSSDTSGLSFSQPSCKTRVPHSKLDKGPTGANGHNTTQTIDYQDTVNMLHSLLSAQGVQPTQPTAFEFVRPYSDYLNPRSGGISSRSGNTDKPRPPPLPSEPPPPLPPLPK

T1 sequence (P06493 whole entry, species assumed): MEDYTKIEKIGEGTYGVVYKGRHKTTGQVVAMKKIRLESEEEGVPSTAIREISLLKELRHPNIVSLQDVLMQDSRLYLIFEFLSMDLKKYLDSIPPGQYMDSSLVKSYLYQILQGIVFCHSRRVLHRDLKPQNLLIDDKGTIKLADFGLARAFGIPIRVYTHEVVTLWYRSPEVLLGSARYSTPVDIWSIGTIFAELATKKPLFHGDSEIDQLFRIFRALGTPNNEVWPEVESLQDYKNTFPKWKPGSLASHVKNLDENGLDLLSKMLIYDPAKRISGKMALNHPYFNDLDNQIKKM
T1 sequence (P14635 whole entry partner, species assumed): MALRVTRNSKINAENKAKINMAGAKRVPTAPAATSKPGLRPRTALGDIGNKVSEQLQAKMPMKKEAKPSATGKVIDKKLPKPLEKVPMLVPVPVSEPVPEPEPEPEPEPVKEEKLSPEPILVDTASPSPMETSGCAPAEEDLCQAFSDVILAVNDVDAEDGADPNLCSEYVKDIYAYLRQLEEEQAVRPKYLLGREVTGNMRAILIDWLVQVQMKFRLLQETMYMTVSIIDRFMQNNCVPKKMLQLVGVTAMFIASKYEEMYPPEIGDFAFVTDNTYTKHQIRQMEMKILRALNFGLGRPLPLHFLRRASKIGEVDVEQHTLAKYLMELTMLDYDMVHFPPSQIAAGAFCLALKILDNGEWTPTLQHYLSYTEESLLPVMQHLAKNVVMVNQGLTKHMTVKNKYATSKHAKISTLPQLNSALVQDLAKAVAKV

CCCCCCNc1nc(NC(CO)c2ccccc2)c2nnn(C(C)C)c2n1 (racemic)
Effect (β-adrenergic receptors): inhibition | IC50 (β-adrenergic receptors): 12 ± 1 µM

CC(C)n1nnc2c(NCc3ccccc3O)nc(N[C@H]3CC[C@H](N)CC3)nc21 [Example 12, 2-(trans-4-Aminocyclohexylamino)-6-(2-hydroxybenzylamino)-9-isopropyl-8-azapurine]
melting point: 120 to 123 °C

Cc1nc(NCc2ccccc2)c2nnn(C(C)C)c2n1 [Example 15, 2-methyl-6-benzylamino-9-isopropyl-8-azapurine]
melting point: 133 to 139 °C

CC(C)C(CO)Nc1nc(NCc2ccccc2)c2nnn(C(C)C)c2n1 (stereo not drawn)
Effect (β-adrenergic receptors): inhibition | IC50 (β-adrenergic receptors): 32 ± 2 µM

CC(C)n1nnc2c(Nc3cccc(Cl)c3)nc(NC3CCC(N)CC3)nc21 (stereo not drawn) [2-(4-aminocyclohexyl)amino-6-(3-chlorophenyl)amino-9-isopropyl-8-azapurine]
IC50 (p34^cdc2/cyclin B (CDC2)): 6.3 µM | IC50 (IκB-α kinase): 60 µM | IC50 (MCF7): 6.1 µM | IC50 (K-562): 7.4 µM | melting point: 221 to 223 °C

NCCCNc1nc(NCc2ccccc2)c2[nH]nnc2n1 [Example 20, 2-(3-Aminopropylamino)-6-benzylamino-8-azapurine]
melting point: 119 to 124 °C

CC(C)C(CO)Nc1nc(Nc2cccc(Cl)c2)c2nnn(C(C)C)c2n1 (stereo not drawn) [Example 10, 2-(1-Hydroxymethyl-2-methylpropylamino)-6-(3-chloroanilino)-9-isopropyl-8-azapurine]
melting point: 160 to 163 °C

CC(C)n1nnc2c(NCc3ccccc3)nc(NCCN)nc21
IC50 (p34^cdc2/cyclin B (CDC2)): > 100 µM | IC50 (IκB-α kinase): > 100 µM | Effect, fold activation (β-adrenergic receptors): 1.1-fold activation

CC[C@H](CO)Nc1nc(NCc2ccc(O)cc2)c2[nH]nc(C(C)C)c2n1
Effect, fold activation (β-adrenergic receptors): 1.2-fold activation

Clc1nc(NCc2ccccc2)c2[nH]nnc2n1 [Example 18, 2-Chloro-6-benzylamino-8-azapurine]
melting point: 122 to 124 °C

CC[C@H](CO)Nc1nc(NCc2cccc(O)c2)c2nnn(C(C)C)c2n1 [2-R-(1-hydroxymethyl)propylamino-6-(3-hydroxybenzyl)amino-9-isopropyl-8-azapurine]
IC50 (p34^cdc2/cyclin B (CDC2)): 10 µM | IC50 (IκB-α kinase): 85 µM | Effect, fold activation (β-adrenergic receptors): 1.3-fold activation

CC(C)n1nnc2c(NCc3ccccc3)nc(NCCCN)nc21
IC50 (p34^cdc2/cyclin B (CDC2)): > 100 µM | IC50 (IκB-α kinase): > 100 µM | Effect (β-adrenergic receptors): inhibition | IC50 (β-adrenergic receptors): 31 ± 2 µM

CC(C)n1nnc2c(NCc3ccccc3)nc(NCCCO)nc21
IC50 (p33^cdk2 (cyclin E)): 54.6 µM | IC50 (CDK9 - cyclin T1): 29.2 µM

CC[C@H](CO)Nc1nc(NCc2ccc(OC)c(O)c2)c2nnn(C(C)C)c2n1
IC50 (p33^cdk2 (cyclin E)): 6.4 µM | IC50 (CDK9 - cyclin T1): 2 µM

CC(C)C(CO)Nc1nc(NCc2cccc(O)c2)c2nnn(C(C)C)c2n1 (stereo not drawn) [Example 9, 2-(1-Hydroxymethyl-2-methylpropylamino)-6-(3-hydroxybenzylamino)-9-isopropyl-8-azapurine]
melting point: 150 to 152 °C
